The target of series [1] is T1, human GPR120 (Homo sapiens, UniProt Q5NUL3).
T1 sequence (Q5NUL3 1-361): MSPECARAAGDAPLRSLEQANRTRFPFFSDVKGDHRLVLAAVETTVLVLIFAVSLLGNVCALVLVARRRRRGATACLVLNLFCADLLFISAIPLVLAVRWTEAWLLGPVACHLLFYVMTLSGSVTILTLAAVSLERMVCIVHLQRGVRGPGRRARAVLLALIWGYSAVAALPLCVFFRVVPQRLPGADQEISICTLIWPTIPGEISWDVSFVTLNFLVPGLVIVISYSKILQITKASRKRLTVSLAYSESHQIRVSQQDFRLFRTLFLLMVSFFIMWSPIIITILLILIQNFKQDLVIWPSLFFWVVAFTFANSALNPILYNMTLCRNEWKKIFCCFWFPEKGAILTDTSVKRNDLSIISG
Description: Internalization of GPR120 (Enzyme Fragment Complementation, DiscoverX). It counts as cell-based. Conditions: at 100 μM.

The nature of series [2]: Biodistribution in colon after single oral dose. It is filed as in vivo. Conditions: PO 90.0 mg/kg, male Swiss albino mice. How it is done:
The biodistribution of DFL23806 in the proximal and distal colon was evaluated in male Swiss albino mice following single dose oral administration of DFL23806 90 mg/kg.
Colon concentration (ng/g) of DFL23806 after PO (90.0 mg/kg) dose administration to male Swiss albino mice.
Colon/Plasma ratio of DFL23806 after PO (90.0 mg/kg) dose administration to male Swiss albino mice.

Series [3] in a line: Plasma pharmacokinetics after single oral administration to mice. It is filed as in vivo. Conditions: male, CD1, mouse, single oral dose (Dose_PO: 10.0-90.0 mg/kg). An excerpt: The purpose of this study was to evaluate plasma and tissue exposure of the following compounds after a single oral administration to mice: • 7-(3-(N-(4-fluoro-2,6-dimethylphenyl)sulfamoyl)phenyl)heptanoic acid (indicated below as DFL23806), • 7-(3-(N-(4-chloro-2,6-dimethylphenyl)sulfamoyl)phenyl)heptanoic acid (indicated below as DFL23914) • 7-(3-(N-(2,6-dimethyl-4-(trifluoromethyl)phenyl)sulfamoyl)phenyl)heptanoic acid (indicated below as DFL23922) • 7-(3-(N-(6-fluoro-4-methyl-[1,1′-biphenyl]-3-yl)sulfamoyl)phenyl)heptanoic acid (indicated below as DFL23916) • 7-(3-(N-(5-fluoro-3-methyl-[1,1′-biphenyl]-2-yl)sulfamoyl)phenyl)heptanoic acid (indicated below as DFL23917) • 7-(3-{[4-fluoro-2-methyl-5-(thiophen-2-yl)phenyl]sulfamoyl}phenyl)heptanoic acid (indicated below as DFL24102) […]
A retro-orbital, composite blood sampling at pre-dose or after dosing at 30 min, 1, 2, 6, 8 and 24 hours (three mice/time point) was carried out for the plasma pharmacokinetic assessment. Blood samples were collected in heparinized collection tubes. Samples were taken immediately onto ice and kept cool until centrifugation (10000 g for 3 minutes at about +4° C.). About 50 μL of plasma were stored in a freezer at −80° C. pending analysis.
After samples collection, bioanalysis for concentrations of the test compounds were done using HPLC-MS/MS methods and pharmacokinetic analysis of the compounds in plasma and tissues was performed according to standard non-compartmental approach using Watson system (v 7.6, Thermo Fisher Scientific Waltham, MA, USA) on mean concentration data.

The next series concerns the target T2, GPR120 (Mus musculus, UniProt Q7TMA4).
T2 construct: Colon lysates (˜900 μg proteins) from 6 mice of each experimental group were pooled; from tissue; host or cells: mouse colon (DSS colitis model)
T2 sequence (Q7TMA4 1-361): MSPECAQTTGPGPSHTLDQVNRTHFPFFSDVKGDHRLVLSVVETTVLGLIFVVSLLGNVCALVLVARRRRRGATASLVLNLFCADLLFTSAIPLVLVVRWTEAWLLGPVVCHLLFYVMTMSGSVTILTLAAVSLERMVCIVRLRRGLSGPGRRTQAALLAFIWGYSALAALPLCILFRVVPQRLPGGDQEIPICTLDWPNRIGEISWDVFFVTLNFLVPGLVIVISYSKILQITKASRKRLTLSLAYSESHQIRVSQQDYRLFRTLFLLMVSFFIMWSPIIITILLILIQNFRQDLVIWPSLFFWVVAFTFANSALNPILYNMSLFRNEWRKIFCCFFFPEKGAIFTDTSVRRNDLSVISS
As to the kind of experiment: Co-immunoprecipitation of β-arrestin 2 with GPR120 in colon lysates of DSS mice. It counts as in vivo. On the procedure:
(§1) The efficiency of DFL in activating the GPR120 and/or GPR40 receptors was tested.
(§2) Agonist-induced GPR120 can engage multiple signalling pathways to regulate distinct physiological outcomes. After ligand binding, B-arrestins, such as B-arrestin 2 can associate with the cytoplasmic domains of GPR120 and couple the receptor to specific downstream signaling pathways (FIG. 9). For this reason, we verified the agonist efficiency in activating GPR120 and GPR40 by immunoprecipitation. Colon lysates (˜900 μg proteins) from 6 mice of each experimental group were pooled, precleared with protein A/G plus-agarose (Santa Cruz) and then incubated with the antibody used for immunoprecipitation (anti-GPR120 or anti-GPR40, Abcam) at 4° C. for 16 h, followed by incubation with protein A/G plus-agarose for 5 h. The agarose beads were then collected by centrifugation, washed four times with lysis buffer, and heated to 95° C. for 5 min after adding Laemmli buffer. The resulting immunoprecipitates were separated by SDS-PAGE and probed with the anti-β-arrestin 2 antibody (Santa Cruz).
(§3) Upon western blotting, a densitometric analysis of the blots was performed using Image J. FIGS. 10 and 11 show the ratio between co-immunoprecipitated β-arrestin 2 and GPR120 (FIG. 10) or GPR40 levels (FIG. 11) and the results of the blotting.

For series [4], the target named is T1, human GPR120. As to the kind of experiment: Activation of GPR120 receptor. It counts as cell-based.
The next series addresses T3, GPR40 (Mus musculus, UniProt Q76JU9).
T3 construct: Colon lysates (˜900 μg proteins) from 6 mice of each experimental group were pooled; from tissue; host or cells: mouse colon (DSS colitis model)
As to the kind of experiment: Co-immunoprecipitation of β-arrestin 2 with GPR40 in colon lysates of DSS mice. It counts as in vivo. Conditions: pooled colon lysates, day 39; compared to DSS or DSS+vehicle. On the procedure:
as §1, §2, §3

A word on the AUC(0-inf): it is total exposure, with the tail of the curve extrapolated. Lower therefore signals less exposure. The AUC(0-t) is exposure summed from dosing to a finite time, without extrapolation to infinity. A lower AUC(0-t) goes with less exposure. As a reminder, the Cmax is the highest concentration seen after dosing. As a reminder, the Tmax is the time from dosing to the highest level. What is called half-life is the time in which the quantity being followed falls by half. A higher half-life goes with slow decline. As a reminder, the AC50 is the concentration giving half of the maximal activity seen. A higher AC50 goes with weaker potency.

T3 sequence (Q76JU9 whole entry): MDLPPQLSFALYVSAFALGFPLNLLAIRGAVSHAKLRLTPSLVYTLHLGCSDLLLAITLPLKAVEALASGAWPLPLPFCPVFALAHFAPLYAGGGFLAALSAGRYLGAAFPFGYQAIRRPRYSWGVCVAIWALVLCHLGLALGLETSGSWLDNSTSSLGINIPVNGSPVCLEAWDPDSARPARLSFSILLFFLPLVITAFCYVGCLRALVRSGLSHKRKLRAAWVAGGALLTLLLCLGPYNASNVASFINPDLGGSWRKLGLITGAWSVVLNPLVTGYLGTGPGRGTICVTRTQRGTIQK

Take `Cc1cc(F)cc(C)c1NS(=O)(=O)c1cccc(CCCCCCC(=O)O)c1` [DFL23806, 7-(3-(N-(4-fluoro-2,6-dimethylphenyl)sulfamoyl)phenyl)heptanoic acid]: the “efficacy of internalization of the human GPR120 receptor” value at human GPR120 [1] was found to be 59.1%. For the same molecule, in series [2] (4.00 h, 90 mg/kg), the “Colon/Plasma ratio, Mean” value is on record as 64.20. Also, the Kp at 1 h in series [2] (mouse, colon/plasma, 1.00 h, read-out: Colon/Plasma ratio, Mean) came out at 1.63. In addition, the Kp at 4 h in series [2] (mouse, colon/plasma, 4.00 h, read-out: Colon/Plasma ratio, Mean) was 64.2. Moreover, the concentration at 1 h in series [2] (mouse, colon, 1.00 h) worked out at 68.3 ng/g. The concentration at 4 h in series [2] (mouse, colon, 4.00 h) came to 3570 ng/g. Moreover, in series [3], the AUC(0-inf) worked out at 405 ng·h/mL, the AUC(0-t) came to 354 ng·h/mL, the highest concentration (Cmax) was 106 ng/mL and the Tmax was 0.5 h. The molecule further gave a half-life in series [3] of 5.8 h. Moreover, the “selectivity GPR120 versus GPR40” value on GPR120 (from β-arrestin 2 co-immunoprecipitation with GPR120 and GPR40) is “GPR120 selective agonist”. Also, the “association between GPR120 and β-arrestin 2 (ratio co-immunoprecipitated β-arrestin 2 / GPR120)” value at GPR120 (pooled colon lysates, day 39, DFL 90 mg/kg, compared to control groups or DSS+5-ASA 60 mg/Kg) is “higher compared to control groups”. The same molecule gave an AC50 on human GPR120 [4] of 3.9 µM. Moreover, the “GPR40 and β-arrestin 2 association (ratio co-immunoprecipitated β-arrestin 2 / GPR40)” value on GPR40 was “no increase”.

The values above are taken from patent US20250177329A1, “GPR120 AGONISTS FOR THE TREATMENT OF INFLAMMATORY BOWEL DISEASE” (Dompe' Farmaceutici SPA, priority 2022, published 2025).
